Here are results for 42 compounds from US20130096119A1, “Isoquinolin-3-Ylurea Derivatives” (priority 2010, published 2013).

This test relates to S. pneumoniae ATCC 49619. Kind of test: Minimal inhibitory concentration (MIC) by microdilution method (CLSI M7-A7). The format is cell-based, Streptococcus pneumoniae. The note with it: Streptococcus pneumoniae, ATCC49619, cation-adjusted Mueller-Hinton Broth supplemented with 3% (v/v) lysed horse blood. The method, then: Minimal inhibitory concentrations (MICs; mg/l) were determined in cation-adjusted Mueller-Hinton Broth (supplemented with 3% (v/v) lysed horse blood for testing Streptococcus pneumoniae) by a microdilution method following the description given in “Methods for Dilution Antimicrobial Susceptibility Tests for Bacteria that Grow Aerobically”, Approved standard, 7th ed., Clinical and Laboratory Standards Institute (CLSI) Document M7-A7, Wayne, Pa., USA, 2006.

Converted amounts (≈) assume the structure as drawn.

`CCNC(=O)Nc1cc2cc(-c3ccc(OC)nc3)cc(C)c2cn1` [Example 89, 1-ethyl-3-[6-(6-methoxy-pyridin-3-yl)-8-methyl-isoquinolin-3-yl]-urea] had an MIC of 0.5 µg/mL (≈ 1.49 µM).
For the compound `CCNC(=O)Nc1cc2cc(-c3cccc4[nH]ccc34)cc(C)c2cn1` [Example 90, 1-ethyl-3-[6-(1H-indol-4-yl)-8-methyl-isoquinolin-3-yl]-urea], the minimal inhibitory concentration (MIC) was 2 µg/mL (≈ 5.81 µM).
Next, `CCNC(=O)Nc1cc2cc(-c3cncc4ccccc34)cc(C)c2cn1` [Example 91, 1-ethyl-3-(8′-methyl-[4,6′]biisoquinolinyl-3′-yl)-urea]: 2 µg/mL (≈ 5.61 µM).
The result for `CCNC(=O)Nc1cc2cc(-c3ccc(CC#N)cc3)cc(C)c2cn1` [Example 92, 1-[6-(4-(cyanomethyl)-phenyl)-8-methyl-isoquinolin-3-yl]-3-ethyl-urea] reads 0.25 µg/mL (≈ 0.726 µM).
`CCNC(=O)Nc1cc2cc(-c3ccsc3)cc(C)c2cn1` [Example 93, 1-ethyl-3-(8-methyl-6-thiophen-3-yl-isoquinolin-3-yl)-urea] yielded an MIC of 2 µg/mL (≈ 6.42 µM).
As to `CCNC(=O)Nc1cc2cc(-c3ccc(S(C)(=O)=O)cc3)cc(C)c2cn1` [Example 94, 1-ethyl-3-[6-(4-methanesulfonyl-phenyl)-8-methyl-isoquinolin-3-yl]-urea], inhibition of growth (MIC) required 0.25 µg/mL (≈ 0.652 µM).
The result for `CCNC(=O)Nc1cc2cc(-c3cncnc3C(C)C)cc(C)c2cn1` [Example 95, 1-ethyl-3-[6-(4-isopropyl-pyrimidin-5-yl)-8-methyl-isoquinolin-3-yl]-urea] reads 16 µg/mL (≈ 45.8 µM); that for `CCNC(=O)Nc1cc2cc(-c3cncc(SC)c3)cc(C)c2cn1` [Example 96, 1-ethyl-3-[8-methyl-6-(5-methylsulfanyl-pyridin-3-yl)-isoquinolin-3-yl]-urea], 2 µg/mL (≈ 5.67 µM).
As for `CCNC(=O)Nc1cc2cc(-c3ccncc3F)cc(C)c2cn1` [Example 97, 1-ethyl-3-[6-(3-fluoro-pyridin-4-yl)-8-methyl-isoquinolin-3-yl]-urea], the MIC is 2 µg/mL (≈ 6.17 µM).
The result for `CCNC(=O)Nc1cc2cc(-c3ccncc3Cl)cc(C)c2cn1` [Example 98, 1-[6-(3-chloro-pyridin-4-yl)-8-methyl-isoquinolin-3-yl]-3-ethyl-urea] reads 4 µg/mL (≈ 11.7 µM).
In turn, `CCNC(=O)Nc1cc2cc(-c3ccc(F)nc3)cc(C)c2cn1` [Example 99, 1-ethyl-3-[6-(6-fluoro-pyridin-3-yl)-8-methyl-isoquinolin-3-yl]-urea] returned an MIC of 2 µg/mL (≈ 6.17 µM).
The result for `CCNC(=O)Nc1cc2cc(-c3cccnc3F)cc(C)c2cn1` [Example 100, 1-ethyl-3-[6-(2-fluoro-pyridin-3-yl)-8-methyl-isoquinolin-3-yl]-urea] reads 2 µg/mL (≈ 6.17 µM).
In turn, `CCNC(=O)Nc1cc2cc(-c3ccc(CO)nc3)cc(C)c2cn1` [Example 101, 1-ethyl-3-[6-(6-hydroxymethyl-pyridin-3-yl)-8-methyl-isoquinolin-3-yl]-urea] had an MIC of 1 µg/mL (≈ 2.97 µM).
The result for `CCNC(=O)Nc1cc2cc(-c3cncc(F)c3)cc(C)c2cn1` [Example 102, 1-ethyl-3-[6-(5-fluoro-pyridin-3-yl)-8-methyl-isoquinolin-3-yl]-urea] reads 2 µg/mL (≈ 6.17 µM); that for `CCNC(=O)Nc1cc2cc(-c3cncc(S(C)(=O)=O)c3)cc(C)c2cn1` [Example 103, 1-ethyl-3-[6-(5-methanesulfonyl-pyridin-3-yl)-8-methyl-isoquinolin-3-yl]-urea], 0.5 µg/mL (≈ 1.3 µM).
As to `CCNC(=O)Nc1cc2cc(-c3cccc4cnccc34)cc(C)c2cn1` [Example 104, 1-ethyl-3-(8′-methyl-[5,6′]biisoquinolinyl-3′-yl)-urea], the minimal inhibitory concentration (MIC) turned out to be 8 µg/mL (≈ 22.4 µM).
Next, `CCNC(=O)Nc1cc2cc(-c3ccccc3C)cc(C)c2cn1` [Example 105, 1-ethyl-3-(8-methyl-6-o-tolyl-isoquinolin-3-yl)-urea]: 8 µg/mL (≈ 25 µM); `CCNC(=O)Nc1cc2cc(NC(=O)c3ccccc3)cc(C)c2cn1` [Example 106, N-[3-(3-ethyl-ureido)-8-methyl-isoquinolin-6-yl]-benzamide]: 0.125 µg/mL (≈ 0.359 µM).
The result for `CCNC(=O)Nc1cc2cc(-c3cccc(C#N)c3)cc(C)c2cn1` [Example 107, 1-[6-(3-cyano-phenyl)-8-methyl-isoquinolin-3-yl]-3-ethyl-urea] reads 1 µg/mL (≈ 3.03 µM); that for `CCNC(=O)Nc1cc2cc(-c3ccc(C(C)=O)cc3)cc(C)c2cn1` [Example 108, 1-[6-(4-acetyl-phenyl)-8-methyl-isoquinolin-3-yl]-3-ethyl-urea], 0.5 µg/mL (≈ 1.44 µM); that for `CCNC(=O)Nc1cc2cc(-c3ccccc3O)cc(C)c2cn1` [Example 109, 1-ethyl-3-[6-(2-hydroxy-phenyl)-8-methyl-isoquinolin-3-yl]-urea], 2 µg/mL (≈ 6.22 µM).
The result for `CCNC(=O)Nc1cc2c(F)c(NCc3ccccc3)cc(-c3cnc(OC)nc3)c2cn1` [Example 110, 1-[6-benzylamino-5-fluoro-8-(2-methoxy-pyrimidin-5-yl)-isoquinolin-3-yl]-3-ethyl-urea] reads 1 µg/mL (≈ 2.24 µM); that for `CCNC(=O)Nc1cc2c(F)c(-c3ccc(S(N)(=O)=O)cc3)cc(Cl)c2cn1` [Example 111, 4-[8-chloro-3-(3-ethyl-ureido)-5-fluoro-isoquinolin-6-yl]-benzenesulfonamide], 1 µg/mL (≈ 2.36 µM).
On to `CCNC(=O)Nc1cc2c(F)c(-c3cnc4ccccc4c3)cc(-c3cnc4ccccc4c3)c2cn1` [Example 112, 1-ethyl-3-(5-fluoro-6,8-di-quinolin-3-yl-isoquinolin-3-yl)-urea], for which the MIC came to 0.5 µg/mL (≈ 1.03 µM).
`CCNC(=O)Nc1cc2c(F)c(-c3cccc(NC(C)=O)c3)cc(-c3cccnc3)c2cn1` [Example 113, N-{3-[3-(3-ethyl-ureido)-5-fluoro-8-pyridin-3-yl-isoquinolin-6-yl]-phenyl}-acetamide] returned a minimal inhibitory concentration (MIC) of 1 µg/mL (≈ 2.25 µM).
The result for `CCNC(=O)Nc1cc2c(F)c(-c3cccc(NC(C)=O)c3)cc(-c3cnc(OC)nc3)c2cn1` [Example 114, N-{3-[3-(3-ethyl-ureido)-5-fluoro-8-(2-methoxy-pyrimidin-5-yl)-isoquinolin-6-yl]-phenyl}-acetamide] reads 0.5 µg/mL (≈ 1.05 µM).
Next, `CCCNc1cc(C)c2cnc(NC(=O)NCC)cc2c1` [Example 115, 1-ethyl-3-(8-methyl-6-propylamino-isoquinolin-3-yl)-urea]: 4 µg/mL (≈ 14 µM).
In turn, `CCNC(=O)Nc1cc2cc(NC(=O)c3ccncc3)cc(C)c2cn1` [Example 116, N-[3-(3-ethyl-ureido)-8-methyl-isoquinolin-6-yl]-isonicotinamide] came in with an MIC of 0.125 µg/mL (≈ 0.358 µM).
Next, `CCNC(=O)Nc1cc2cc(NC(=O)c3ccc(S(C)(=O)=O)cc3)cc(C)c2cn1` [Example 117, N-[3-(3-ethyl-ureido)-8-methyl-isoquinolin-6-yl]-4-methanesulfonyl-benzamide]: 0.25 µg/mL (≈ 0.586 µM); `CCNC(=O)Nc1cc2cc(NC(=O)c3cccc(N(C)C)c3)cc(C)c2cn1` [Example 118, 3-dimethylamino-N-[3-(3-ethyl-ureido)-8-methyl-isoquinolin-6-yl]-benzamide]: 0.06 µg/mL (≈ 0.153 µM); `CCNC(=O)Nc1cc2cc(NC(=O)c3cccnc3)cc(C)c2cn1` [Example 119, N-[3-(3-ethyl-ureido)-8-methyl-isoquinolin-6-yl]nicotinamide]: 0.25 µg/mL (≈ 0.716 µM).
`CCNC(=O)Nc1cc2cc(NC(=O)c3ccc(OC)cc3)cc(C)c2cn1` [Example 120, N-[3-(3-ethyl-ureido)-8-methyl-isoquinolin-6-yl]-4-methoxy-benzamide] came in with an MIC of 0.125 µg/mL (≈ 0.33 µM).
Next, `CCNC(=O)Nc1cc2cc(NC(=O)c3ccc(N(C)C)cc3)cc(C)c2cn1` [Example 121, 4-dimethylamino-N-[3-(3-ethyl-ureido)-8-methyl-isoquinolin-6-yl]-benzamide]: 0.25 µg/mL (≈ 0.639 µM); `CCNC(=O)Nc1cc2cc(NCc3ccncc3)cc(C)c2cn1.Cl` [Example 122, 1-ethyl-3-{8-methyl-6-[(pyridin-4-ylmethyl)-amino]-isoquinolin-3-yl}-urea hydrochloride]: 8 µg/mL.
The result for `CCNC(=O)Nc1cc2cccc(-c3ccc(C(=O)O)cc3)c2cn1` [Example 123, 4-[3-(3-ethyl-ureido)-isoquinolin-8-yl]-benzoic acid] reads 4 µg/mL (≈ 11.9 µM).
Next, `CCNC(=O)Nc1cc2c(-c3ccc(C(=O)O)cc3)cccc2cn1` [Example 124, 4-[3-(3-ethyl-ureido)-isoquinolin-5-yl]-benzoic acid]: 4 µg/mL (≈ 11.9 µM); `CCNC(=O)Nc1cc2c(-c3ccncc3)ccc(OC)c2cn1` [Example 125, 1-ethyl-3-(8-methoxy-5-pyridin-4-yl-isoquinolin-3-yl)-urea]: 4 µg/mL (≈ 12.4 µM); `CCNC(=O)Nc1cc2cc(NCc3cccc(C(=O)OC)c3)cc(C)c2cn1` [Example 126, 3-{[3-(3-ethyl-ureido)-8-methyl-isoquinolin-6-ylamino]-methyl}-benzoic acid methyl ester]: 8 µg/mL (≈ 20.4 µM).
For `CCNC(=O)Nc1cc2cc(NCc3ccc(C(=O)O)cc3)cc(C)c2cn1` [Example 127, 4-{[3-(3-ethyl-ureido)-8-methyl-isoquinolin-6-ylamino]-methyl}-benzoic acid], the MIC came to 16 µg/mL (≈ 42.3 µM).
Turning to `CCNC(=O)Nc1cc2cc(NCc3cccc(C(=O)O)c3)cc(C)c2cn1.Cl` [Example 128, 3-{[3-(3-ethyl-ureido)-8-methyl-isoquinolin-6-ylamino]-methyl}-benzoic acid hydrochloride], the MIC is 8 µg/mL.
The result for `CCNC(=O)Nc1cc2cc(NCc3cccc(OCCO)c3)cc(C)c2cn1.Cl` [Example 129, 1-ethyl-3-{6-[3-(2-hydroxy-ethoxy)-benzylamino]-8-methyl-isoquinolin-3-yl}-urea hydrochloride] reads 16 µg/mL.
Next, `CCNC(=O)Nc1cc2cc(NCc3ccc4c(c3)OCCN4C)cc(C)c2cn1.Cl` [Example 130, 1-ethyl-3-{8-methyl-6-[(4-methyl-3,4-dihydro-2H-benzo[1,4]oxazin-7-ylmethyl)-amino]isoquinolin-3-yl}-urea hydrochloride]: 8 µg/mL.

The term MIC denotes the lowest concentration found to suppress growth. A high value points to a less susceptible organism.
